Experimental data taken from patent publication EP4692073A1, “CYCLIC AMINE DERIVATIVE, AND COMPOSITION AND USE THEREOF” (Shanghai Jingxin Biomedical Co., Ltd., priority 2023, dated 2024).

Assays:
Lp(a) = experiment: In vivo Lp(a) inhibition in cynomolgus monkeys; details: 3 mg/kg oral gavage once daily for 5 days, serum Lp(a) 8 hours after administration on Day 5
Procedure: • 1. Experimental purpose: The purpose of this test is to test the inhibitory effect of the compounds of the present invention on Lp(a) in cynomolgus monkeys • 2. Experimental instruments and reagents: Fully automatic biochemical analyzer (Hitachi 7600 model), • 3. Experimental methods: The cynomolgus monkeys were housed with a standard light cycle (12 hours light/12 hours dark), at a room temperature of 18-26°C and a relative humidity of 40-70%, with drinking water provided continuously for 24 hours, and feed was provided to the animals twice daily, in the morning (about 10:30) and in the afternoon (about 15:00). Five days prior to the study, the cynomolgus monkeys were randomly assigned to groups (n=3/group) based on their body weight and baseline serum Lp(a) concentration for the study. The administration volume was calculated according to the body weight of the animals on the first day of administration, and the administration volume was 5 mL/kg, administered once daily by oral gavage for 5 consecutive days, and the dosage was 3 mg/kg, and the solvent was 1% HEC and 0.25% Tween 80.
The adaptation period (after fasting overnight), before administration on Day 1, and 8 hours after administration on Day 5. […] The serum Lp(a) level was detected using a fully automatic biochemical analyzer. […]

TA98 = experiment: Salmonella typhimurium reverse mutation test, TA98; assay type: cell-based; parameters: key: + indicates a positive mutagenic result; - indicates a negative mutagenic result
Procedure: (§1) The revived strains or a single colony from the master plate were inoculated into the broth, and cultured in a thermostat gas bath vibrator at 100 to 120 rpm and 37±1°C for 10 to 16 hours, marked and stored for later use. The bottom agar medium (containing an appropriate amount of agar, Vogel-Bonner buffer, 20% glucose solution and 20% magnesium sulfate solution) was poured into a six-well plate, approximately 20mL-25mL into each well, and allowed to cool and solidify naturally, marked each well and stored for later use.
(§2) Three wells were set up in each group for parallel experiments. The top agar medium was sterilized under high pressure and kept warm at about […]. In each test tube, 0.1mL of negative control (DMSO) or positive control or test sample, 0.1mL of bacterial solution suspension, 0.5mL of phosphate buffer (0.2M PBS) (-S9) or 0.5mL of S9 mixed solution (+S9) and 2.5mL top culture medium were added, after vortex mixing, and then quickly and evenly spread on the culture dish which was already spreaded with the bottom agar medium. After natural cooling and solidification, the culture dish was inverted and placed in a 37°C incubator for 48 to 72 hours. After culturing for 48 to 72 hours, the culture dish was taked out, and the number of revertant colonies in each well was counted, the growth background was observed under a microscope to determine whether there was antibacterial or bactericidal activity, and the experimental results were recorded.

TA1537 = experiment: Salmonella typhimurium reverse mutation test, TA1537; assay type: cell-based; parameters: key: + indicates a positive mutagenic result; - indicates a negative mutagenic result
Procedure: as §1, §2

TA100 = experiment: Salmonella typhimurium reverse mutation test, TA100; assay type: cell-based; parameters: key: + indicates a positive mutagenic result; - indicates a negative mutagenic result
Procedure: as §1, §2

TA102 = experiment: Salmonella typhimurium reverse mutation test, TA102; assay type: cell-based; parameters: key: + indicates a positive mutagenic result; - indicates a negative mutagenic result
Procedure: as §1, §2

TA1535 = experiment: Salmonella typhimurium reverse mutation test, TA1535; assay type: cell-based; parameters: key: + indicates a positive mutagenic result; - indicates a negative mutagenic result
Procedure: as §1, §2

[1] = TA98, no S9 mixture, 62µg/ dish
[2] = TA98, no S9 mixture, 185µg/ dish
[3] = TA98, no S9 mixture, 556µg/ dish
[4] = TA98, no S9 mixture, 1667µg/ dish
[5] = TA98, no S9 mixture, 5000µg/ dish
[6] = TA98, with S9 mixture, 62µg/ dish
[7] = TA98, with S9 mixture, 185µg/ dish
[8] = TA98, with S9 mixture, 556µg/ dish
[9] = TA98, with S9 mixture, 1667µg/ dish
[10] = TA98, with S9 mixture, 5000µg/ dish
[11] = TA1537, no S9 mixture, 62µg/ dish
[12] = TA1537, no S9 mixture, 185µg/ dish
[13] = TA1537, no S9 mixture, 556µg/ dish
[14] = TA1537, no S9 mixture, 1667µg/ dish
[15] = TA1537, no S9 mixture, 5000µg/ dish
[16] = TA1537, with S9 mixture, 62µg/ dish
[17] = TA1537, with S9 mixture, 185µg/ dish
[18] = TA1537, with S9 mixture, 556µg/ dish
[19] = TA1537, with S9 mixture, 1667µg/ dish
[20] = TA1537, with S9 mixture, 5000µg/ dish
[21] = TA100, no S9 mixture, 62µg/ dish
[22] = TA100, no S9 mixture, 185µg/ dish
[23] = TA100, no S9 mixture, 556µg/ dish
[24] = TA100, no S9 mixture, 1667µg/ dish
[25] = TA100, no S9 mixture, 5000µg/ dish
[26] = TA100, with S9 mixture, 62µg/ dish
[27] = TA100, with S9 mixture, 185µg/ dish
[28] = TA100, with S9 mixture, 556µg/ dish
[29] = TA100, with S9 mixture, 1667µg/ dish
[30] = TA100, with S9 mixture, 5000µg/ dish
[31] = TA102, no S9 mixture, 62µg/ dish
[32] = TA102, no S9 mixture, 185µg/ dish
[33] = TA102, no S9 mixture, 556µg/ dish
[34] = TA102, no S9 mixture, 1667µg/ dish
[35] = TA102, no S9 mixture, 5000µg/ dish
[36] = TA102, with S9 mixture, 62µg/ dish
[37] = TA102, with S9 mixture, 185µg/ dish
[38] = TA102, with S9 mixture, 556µg/ dish
[39] = TA102, with S9 mixture, 1667µg/ dish
[40] = TA102, with S9 mixture, 5000µg/ dish
[41] = TA1535, no S9 mixture, 62µg/ dish
[42] = TA1535, no S9 mixture, 185µg/ dish
[43] = TA1535, no S9 mixture, 556µg/ dish
[44] = TA1535, no S9 mixture, 1667µg/ dish
[45] = TA1535, no S9 mixture, 5000µg/ dish
[46] = TA1535, with S9 mixture, 62µg/ dish
[47] = TA1535, with S9 mixture, 185µg/ dish
[48] = TA1535, with S9 mixture, 556µg/ dish
[49] = TA1535, with S9 mixture, 1667µg/ dish
[50] = TA1535, with S9 mixture, 5000µg/ dish

O=C(O)[C@@H](Cc1cccc(CN(Cc2cccc(C[C@H](C(=O)O)[C@H]3CCNC3)c2)Cc2cccc(C[C@H](C(=O)O)[C@H]3CCNC3)c2)c1)[C@H]1CCNC1 [Comparative Example 1]
32.87±17.30%: Lp(a) inhibition rate (Lp(a))
-: mutagenicity (TA98; [1]) | mutagenicity (TA98; [6]) | mutagenicity (TA98; [7]) | mutagenicity (TA1537; [11]) | mutagenicity (TA1537; [12]) | mutagenicity (TA1537; [13]) | mutagenicity (TA1537; [14]) | mutagenicity (TA1537; [15]) | mutagenicity (TA1537; [16]) | mutagenicity (TA1537; [17]) | mutagenicity (TA1537; [18]) | mutagenicity (TA1537; [19]) | mutagenicity (TA1537; [20]) | mutagenicity (TA100; [21]) | mutagenicity (TA100; [22]) | mutagenicity (TA100; [23]) | mutagenicity (TA100; [24]) | mutagenicity (TA100; [25]) | mutagenicity (TA100; [26]) | mutagenicity (TA100; [27]) | mutagenicity (TA100; [28]) | mutagenicity (TA100; [29]) | mutagenicity (TA100; [30]) | mutagenicity (TA102; [31]) | mutagenicity (TA102; [32]) | mutagenicity (TA102; [33]) | mutagenicity (TA102; [34]) | mutagenicity (TA102; [35]) | mutagenicity (TA102; [36]) | mutagenicity (TA102; [37]) | mutagenicity (TA102; [38]) | mutagenicity (TA102; [39]) | mutagenicity (TA102; [40]) | mutagenicity (TA1535; [41]) | mutagenicity (TA1535; [42]) | mutagenicity (TA1535; [43]) | mutagenicity (TA1535; [44]) | mutagenicity (TA1535; [45]) | mutagenicity (TA1535; [46]) | mutagenicity (TA1535; [47]) | mutagenicity (TA1535; [48]) | mutagenicity (TA1535; [49]) | mutagenicity (TA1535; [50])
+: mutagenicity (TA98; [2]) | mutagenicity (TA98; [3]) | mutagenicity (TA98; [4]) | mutagenicity (TA98; [5]) | mutagenicity (TA98; [8]) | mutagenicity (TA98; [9]) | mutagenicity (TA98; [10])

O=C(O)[C@@H](Cc1cccc(CN(Cc2cccc(C[C@H](C(=O)O)[C@H]3CCNC3)c2)C(=O)c2cccc(C[C@H](C(=O)O)[C@H]3CCNC3)c2)c1)[C@H]1CCNC1 [Example 5]
-: mutagenicity (TA98; [1]) | mutagenicity (TA98; [2]) | mutagenicity (TA98; [3]) | mutagenicity (TA98; [4]) | mutagenicity (TA98; [5]) | mutagenicity (TA98; [6]) | mutagenicity (TA98; [7]) | mutagenicity (TA98; [8]) | mutagenicity (TA98; [9]) | mutagenicity (TA98; [10]) | mutagenicity (TA1537; [11]) | mutagenicity (TA1537; [12]) | mutagenicity (TA1537; [13]) | mutagenicity (TA1537; [14]) | mutagenicity (TA1537; [15]) | mutagenicity (TA1537; [16]) | mutagenicity (TA1537; [17]) | mutagenicity (TA1537; [18]) | mutagenicity (TA1537; [19]) | mutagenicity (TA1537; [20]) | mutagenicity (TA100; [21]) | mutagenicity (TA100; [22]) | mutagenicity (TA100; [23]) | mutagenicity (TA100; [24]) | mutagenicity (TA100; [25]) | mutagenicity (TA100; [26]) | mutagenicity (TA100; [27]) | mutagenicity (TA100; [28]) | mutagenicity (TA100; [29]) | mutagenicity (TA100; [30]) | mutagenicity (TA102; [31]) | mutagenicity (TA102; [32]) | mutagenicity (TA102; [33]) | mutagenicity (TA102; [34]) | mutagenicity (TA102; [35]) | mutagenicity (TA102; [36]) | mutagenicity (TA102; [37]) | mutagenicity (TA102; [38]) | mutagenicity (TA102; [39]) | mutagenicity (TA102; [40]) | mutagenicity (TA1535; [41]) | mutagenicity (TA1535; [42]) | mutagenicity (TA1535; [43]) | mutagenicity (TA1535; [44]) | mutagenicity (TA1535; [45]) | mutagenicity (TA1535; [46]) | mutagenicity (TA1535; [47]) | mutagenicity (TA1535; [48]) | mutagenicity (TA1535; [49]) | mutagenicity (TA1535; [50])
50.23±20.41%: Lp(a) inhibition rate (Lp(a))
